# Results as given in patent EP4603105A1, “PHARMACEUTICAL COMPOSITION CONTAINING CYCLIC COMPOUND HAVING SELECTIVE KRAS INHIBITORY EFFECT AGAINST HRAS AND NRAS” (CHUGAI SEIYAKU KABUSHIKI KAISHA, priority 2022, dated 2024).
# Where a SMILES comes first, the peptide text is derived from it. Bridges are numbered along the chain shown (N, C = ends). [ ]: non-standard residue; d: D form. The star is where a group is joined. ξ: configuration not given here. hPhe(3-Cl-4-CF3) = N[C@@H](CCc1ccc(C(F)(F)F)c(Cl)c1)C(=O)O; NPrPhe(4-CF3) = CCCN[C@@H](Cc1ccc(C(F)(F)F)cc1)C(=O)O; 3Oxa8azabicyclo(3.2.1)octane = C1CC2COCC1N2*; NMeGly(cPent) = CN[C@H](C(=O)O)C1CCCC1; NEtLeu = CCN[C@@H](CC(C)C)C(=O)O; NMeD = CN[C@@H](CC(=O)O)C(=O)O; NMeL = CN[C@@H](CC(C)C)C(=O)O; NEtAla = CCN[C@@H](C)C(=O)O; Azetidin(1-yl) = C1CN(*)C1; ξNMeD = CNC(CC(=O)O)C(=O)O; Morpholide = C1CN(*)CCO1; NMeA = CN[C@@H](C)C(=O)O; dNMeA = CN[C@H](C)C(=O)O; Ac5c = NC1(C(=O)O)CCCC1; Aze = O=C(O)[C@@H]1CCN1; ξP = O=C(O)C1CCCN1; Sar = CNCC(=O)O
# Tests used:
# [1] = system: human lung cancer strain NCI-H441; assay type: cell-based
# How it was run: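 Proliferation was scored by […] measured after the reagent was added to cultures kept at 37°C in 5% carbon dioxide.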
# [2] = target: HRAS wild-type protein (Homo sapiens, UniProt P01112); assay: Binding to HRAS by surface plasmon resonance (SPR), KD and KD ratio to KRAS; details: ratio of KD for HRAS wild-type protein to KD for KRAS
# Chain of HRAS wild-type protein (P01112 whole entry): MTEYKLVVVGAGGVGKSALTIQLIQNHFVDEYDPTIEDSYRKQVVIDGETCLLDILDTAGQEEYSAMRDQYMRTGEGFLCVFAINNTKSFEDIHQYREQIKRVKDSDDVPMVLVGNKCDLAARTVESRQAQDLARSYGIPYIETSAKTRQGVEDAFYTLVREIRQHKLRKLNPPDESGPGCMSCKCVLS
# How it was run: (§1)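 Compound binding is evaluated by SPR single-cycle kinetics, with concentrations added intermittently from low to high for 75 s each. Target surfaces carry GDP-loaded biotinylated Avi-RAS at about 100–300 RU, regenerated after each cycle; temperature 30°C. A 1:1 binding model gives KD.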
# [3] = target: GDP-bound NRAS wild-type protein (Homo sapiens, UniProt P01111); assay: Binding to NRAS by surface plasmon resonance (SPR), KD and KD ratio to KRAS; details: ratio of KD for GDP-bound NRAS wild-type protein to KD for KRAS
# Chain of GDP-bound NRAS wild-type protein (P01111 whole entry): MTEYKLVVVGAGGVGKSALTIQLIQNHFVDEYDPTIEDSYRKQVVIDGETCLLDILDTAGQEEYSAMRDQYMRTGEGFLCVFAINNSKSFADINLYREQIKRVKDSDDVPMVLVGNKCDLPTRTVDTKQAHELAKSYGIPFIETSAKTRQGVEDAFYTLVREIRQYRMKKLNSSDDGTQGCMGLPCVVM
# How it was run: as §1
Compound,IC50 [1] [nM],HRAS /KRAS [2],NRAS /KRAS [3]
CCCN1C(=O)[C@@H]2CCN2C(=O)[C@H](C)N(C)C(=O)[C@H]([C@@H](C)CC)NC(=O)[C@H](CC(C)C)N(CC)C(=O)C[C@@H](C(=O)N2CCOCC2)N(C)C(=O)[C@H](C2CCCC2)N(C)C(=O)C2(CCCC2)NC(=O)[C@@H]2CCCN2C(=O)[C@H](CCc2ccc(C(F)(F)F)c(Cl)c2)NC(=O)CN(C)C(=O)[C@@H]1Cc1ccc(C(F)(F)F)cc1 [PP0151] ([NEtLeu]I[NMeA][Aze][NPrPhe(4-CF3)][Sar][hPhe(3-Cl-4-CF3)]P[Ac5c][NMeGly(cPent)][NMeD]-Morpholide; lactam N-11),5.3,C (A compound having a KD ratio of 0.1 or more and less than 3 is denoted as C),C (A compound having a KD ratio of 0.1 or more and less than 3 is denoted as C)
CCCN1C(=O)[C@@H]2CCN2C(=O)CN(C)C(=O)[C@H]([C@@H](C)CC)NC(=O)[C@H](CC(C)C)N(C)C(=O)C[C@@H](C(=O)N2CCOCC2)N(C)C(=O)[C@H](C2CCCC2)N(C)C(=O)C2(CCCC2)NC(=O)[C@@H]2CCCN2C(=O)[C@H](CCc2ccc(C(F)(F)F)c(Cl)c2)NC(=O)CN(C)C(=O)[C@@H]1Cc1ccc(C(F)(F)F)cc1 [PP0156] ([NMeL]I[Sar][Aze][NPrPhe(4-CF3)][Sar][hPhe(3-Cl-4-CF3)]P[Ac5c][NMeGly(cPent)][NMeD]-Morpholide; lactam N-11),8.1,B (a compound having 3 or more and less than 10 is denoted as B),C (A compound having a KD ratio of 0.1 or more and less than 3 is denoted as C)
CCCN1C(=O)CN(C)C(=O)[C@@H]2CCCN2C(=O)[C@H]([C@@H](C)CC)NC(=O)[C@H](CC(C)C)N(C)C(=O)C[C@@H](C(=O)N2CCOCC2)N(C)C(=O)[C@H](C2CCCC2)N(C)C(=O)C2(CCCC2)NC(=O)[C@@H]2CCCN2C(=O)[C@H](CCc2ccc(C(F)(F)F)c(Cl)c2)NC(=O)CN(C)C(=O)[C@@H]1Cc1ccc(C(F)(F)F)cc1 [PP0165] ([NMeL]IP[Sar][NPrPhe(4-CF3)][Sar][hPhe(3-Cl-4-CF3)]P[Ac5c][NMeGly(cPent)][NMeD]-Morpholide; lactam N-11),35,B (a compound having 3 or more and less than 10 is denoted as B),B (a compound having 3 or more and less than 10 is denoted as B)
CCCN1C(=O)CN(C)C(=O)CN(C)C(=O)[C@H]([C@@H](C)CC)NC(=O)[C@H](CC(C)C)N(C)C(=O)C[C@@H](C(=O)N(C)C)N(C)C(=O)[C@H](C2CCCC2)N(C)C(=O)C2(CCCC2)NC(=O)[C@@H]2CCCN2C(=O)[C@H](CCc2ccc(C(F)(F)F)c(Cl)c2)NC(=O)CN(C)C(=O)[C@@H]1Cc1ccc(C(F)(F)F)cc1 [PP0169] ([NMeL]I[Sar][Sar][NPrPhe(4-CF3)][Sar][hPhe(3-Cl-4-CF3)]P[Ac5c][NMeGly(cPent)][NMeD]-NMe2; lactam N-11),2.3,B (a compound having 3 or more and less than 10 is denoted as B),B (a compound having 3 or more and less than 10 is denoted as B)
CCCN1C(=O)CN(C)C(=O)CN(C)C(=O)[C@H]([C@@H](C)CC)NC(=O)[C@H](CC(C)C)N(C)C(=O)C[C@@H](C(=O)N2C3CCC2COC3)N(C)C(=O)[C@H](C2CCCC2)N(C)C(=O)C2(CCCC2)NC(=O)[C@@H]2CCCN2C(=O)[C@H](CCc2ccc(C(F)(F)F)c(Cl)c2)NC(=O)CN(C)C(=O)[C@@H]1Cc1ccc(C(F)(F)F)cc1 [PP0173] ([NMeL]I[Sar][Sar][NPrPhe(4-CF3)][Sar][hPhe(3-Cl-4-CF3)]P[Ac5c][NMeGly(cPent)][NMeD]-{3Oxa8azabicyclo(3.2.1)octane}; lactam N-11),11.6,C (A compound having a KD ratio of 0.1 or more and less than 3 is denoted as C),B (a compound having 3 or more and less than 10 is denoted as B)

# Continued, in another order:
IC50 [1] [nM],Compound,HRAS /KRAS [2],NRAS /KRAS [3]
38,CCCN1C(=O)CN(C)C(=O)CN(C)C(=O)[C@H]([C@@H](C)CC)NC(=O)[C@H](CC(C)C)N(C)C(=O)C[C@@H](C(=O)N2CCOCC2)N(C)C(=O)[C@H](C2CCCC2)N(C)C(=O)C2(CCCC2)NC(=O)[C@@H]2CCCN2C(=O)[C@H](CCc2ccc(C(F)(F)F)c(Cl)c2)NC(=O)[C@@H](C)N(C)C(=O)[C@@H]1Cc1ccc(C(F)(F)F)cc1 [PP0148] ([NMeL]I[Sar][Sar][NPrPhe(4-CF3)][dNMeA][hPhe(3-Cl-4-CF3)]P[Ac5c][NMeGly(cPent)][NMeD]-Morpholide; lactam N-11),B (a compound having 3 or more and less than 10 is denoted as B),B (a compound having 3 or more and less than 10 is denoted as B)
317,CCCN1C(=O)CN(C)C(=O)CN(C)C(=O)[C@H]([C@@H](C)CC)NC(=O)[C@H](CC(C)C)N(C)C(=O)CC(C(=O)N2CCOCC2)N(C)C(=O)[C@H](C2CCCC2)N(C)C(=O)C2(CCCC2)NC(=O)[C@@H]2CCCN2C(=O)[C@H](CCc2ccc(C(F)(F)F)c(Cl)c2)NC(=O)C2CCCN2C(=O)[C@@H]1Cc1ccc(C(F)(F)F)cc1 (stereo partly drawn) [PP0149] ([NMeL]I[Sar][Sar][NPrPhe(4-CF3)][ξP][hPhe(3-Cl-4-CF3)]P[Ac5c][NMeGly(cPent)][ξNMeD]-Morpholide; lactam N-11),B (a compound having 3 or more and less than 10 is denoted as B),C (A compound having a KD ratio of 0.1 or more and less than 3 is denoted as C)
49.1,CCCN1C(=O)CN(C)C(=O)CN(C)C(=O)[C@H]([C@@H](C)CC)NC(=O)[C@H](CC(C)C)N(C)C(=O)C[C@@H](C(=O)N2CCOCC2)N(C)C(=O)[C@H](C2CCCC2)N(C)C(=O)[C@@H](C)NC(=O)[C@@H]2CCCN2C(=O)[C@H](CCc2ccc(C(F)(F)F)c(Cl)c2)NC(=O)CN(C)C(=O)[C@@H]1Cc1ccc(C(F)(F)F)cc1 [PP0150] ([NMeL]I[Sar][Sar][NPrPhe(4-CF3)][Sar][hPhe(3-Cl-4-CF3)]P[dA][NMeGly(cPent)][NMeD]-Morpholide; lactam N-11),C (A compound having a KD ratio of 0.1 or more and less than 3 is denoted as C),B (a compound having 3 or more and less than 10 is denoted as B)
37.9,CCCN1C(=O)[C@@H]2CCN2C(=O)[C@H](C)N(CC)C(=O)[C@H]([C@@H](C)CC)NC(=O)[C@H](CC(C)C)N(C)C(=O)C[C@@H](C(=O)N2CCOCC2)N(C)C(=O)[C@H](C2CCCC2)N(C)C(=O)C2(CCCC2)NC(=O)[C@@H]2CCCN2C(=O)[C@H](CCc2ccc(C(F)(F)F)c(Cl)c2)NC(=O)CN(C)C(=O)[C@@H]1Cc1ccc(C(F)(F)F)cc1 [PP0152] ([NMeL]I[NEtAla][Aze][NPrPhe(4-CF3)][Sar][hPhe(3-Cl-4-CF3)]P[Ac5c][NMeGly(cPent)][NMeD]-Morpholide; lactam N-11),B (a compound having 3 or more and less than 10 is denoted as B),C (A compound having a KD ratio of 0.1 or more and less than 3 is denoted as C)
11.6,CCCN1C(=O)[C@@H]2CCN2C(=O)[C@H](C)N(C)C(=O)[C@H]([C@@H](C)CC)NC(=O)[C@H](CC(C)C)N(C)C(=O)C[C@@H](C(=O)N2CCOCC2)N(C)C(=O)[C@H](C2CCCC2)N(C)C(=O)C2(CCCC2)NC(=O)[C@H](C)NC(=O)[C@H](CCc2ccc(C(F)(F)F)c(Cl)c2)NC(=O)CN(C)C(=O)[C@@H]1Cc1ccc(C(F)(F)F)cc1 [PP0153] ([NMeL]I[NMeA][Aze][NPrPhe(4-CF3)][Sar][hPhe(3-Cl-4-CF3)]A[Ac5c][NMeGly(cPent)][NMeD]-Morpholide; lactam N-11),C (A compound having a KD ratio of 0.1 or more and less than 3 is denoted as C),C (A compound having a KD ratio of 0.1 or more and less than 3 is denoted as C)
9.9,CCCN1C(=O)[C@@H]2CCN2C(=O)[C@H](C)N(C)C(=O)[C@H]([C@@H](C)CC)NC(=O)[C@H](CC(C)C)NC(=O)C[C@@H](C(=O)N2CCOCC2)N(C)C(=O)[C@H](C2CCCC2)N(C)C(=O)C2(CCCC2)NC(=O)[C@@H]2CCCN2C(=O)[C@H](CCc2ccc(C(F)(F)F)c(Cl)c2)NC(=O)CN(C)C(=O)[C@@H]1Cc1ccc(C(F)(F)F)cc1 [PP0154] (LI[NMeA][Aze][NPrPhe(4-CF3)][Sar][hPhe(3-Cl-4-CF3)]P[Ac5c][NMeGly(cPent)][NMeD]-Morpholide; lactam N-11),B (a compound having 3 or more and less than 10 is denoted as B),C (A compound having a KD ratio of 0.1 or more and less than 3 is denoted as C)
2.8,CCCN1C(=O)CN(C)C(=O)CNC(=O)[C@H]([C@@H](C)CC)NC(=O)[C@H](CC(C)C)N(C)C(=O)C[C@@H](C(=O)N2CCOCC2)N(C)C(=O)[C@H](C2CCCC2)N(C)C(=O)C2(CCCC2)NC(=O)[C@@H]2CCCN2C(=O)[C@H](CCc2ccc(C(F)(F)F)c(Cl)c2)NC(=O)CN(C)C(=O)[C@@H]1Cc1ccc(C(F)(F)F)cc1 [PP0155] ([NMeL]IG[Sar][NPrPhe(4-CF3)][Sar][hPhe(3-Cl-4-CF3)]P[Ac5c][NMeGly(cPent)][NMeD]-Morpholide; lactam N-11),C (A compound having a KD ratio of 0.1 or more and less than 3 is denoted as C),B (a compound having 3 or more and less than 10 is denoted as B)
3.8,CCCN1C(=O)CN(C)C(=O)CN(C)C(=O)[C@H]([C@@H](C)CC)NC(=O)[C@H](CC(C)C)N(C)C(=O)C[C@@H](C(=O)N2CCC2)N(C)C(=O)[C@H](C2CCCC2)N(C)C(=O)C2(CCCC2)NC(=O)[C@@H]2CCCN2C(=O)[C@H](CCc2ccc(C(F)(F)F)c(Cl)c2)NC(=O)CN(C)C(=O)[C@@H]1Cc1ccc(C(F)(F)F)cc1 [PP0172] ([NMeL]I[Sar][Sar][NPrPhe(4-CF3)][Sar][hPhe(3-Cl-4-CF3)]P[Ac5c][NMeGly(cPent)][NMeD]-{Azetidin(1-yl)}; lactam N-11),C (A compound having a KD ratio of 0.1 or more and less than 3 is denoted as C),B (a compound having 3 or more and less than 10 is denoted as B)
